Source: US12319641B2, “Lobaric acid derivative having PTP-1B inhibitory activity, preparation method therefor and use thereof” (SNBIOSCIENCE INC., priority 2019, dated 2025)
Read-outs that look alike come from different tables or passages of the source.

Columns and labels:
[1] = Body weight after oral administration in diabetic disease model animals; format: in vivo; conditions: db/db mice; for change in body weight compared to the control: oral administration
Description: To 7-week-old male db/db mice (type 2 diabetes model animal, C57/BLKS/J-db/db, Korea Research Institute of Bioscience and Biotechnology), 200 μl of PBS as a control and 50 mg/kg of dimethyl lobamide as an experimental group were orally administered daily. After administration, in order to investigate the change in body weight, the compound (dimethyl-lobamide) was orally administered twice a week at a fixed time, and then the body weight was measured using an animal scale.

[2] = molecular target: T1, protein tyrosine phosphatase-1B (PTP-1B) (Homo sapiens, UniProt P18031); assay: PTP-1B inhibitory activity, enzyme activity measured spectroscopically with pNPP substrate; format: biochemical
T1 construct: purchased Bioneer, Korea
T1 sequence (P18031 1-435): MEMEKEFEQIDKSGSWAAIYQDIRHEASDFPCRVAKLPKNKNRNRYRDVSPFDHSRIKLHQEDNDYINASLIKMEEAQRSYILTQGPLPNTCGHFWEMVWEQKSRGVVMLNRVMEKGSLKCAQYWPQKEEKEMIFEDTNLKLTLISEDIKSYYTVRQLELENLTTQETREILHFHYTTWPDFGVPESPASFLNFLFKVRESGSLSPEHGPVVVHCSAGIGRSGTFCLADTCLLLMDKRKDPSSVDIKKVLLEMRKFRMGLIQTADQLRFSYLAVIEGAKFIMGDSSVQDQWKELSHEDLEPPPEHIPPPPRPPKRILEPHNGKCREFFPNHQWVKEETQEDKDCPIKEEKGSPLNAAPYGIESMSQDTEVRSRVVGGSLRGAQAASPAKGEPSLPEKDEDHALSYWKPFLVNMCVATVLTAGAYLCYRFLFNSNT
Description: In order to analyze protein tyrosine phosphatase-1B (PTP-1B) inhibitory activity, enzyme activity was measured spectroscopically.
Specifically, to 0.5 μg/mL of PTP-1B (Bioneer, Korea), PTP-1B buffer (50 mM Bis-tris buffer, pH 6.5, 1 mM EDTA, 1 mM DTT), dimethyl lobamide (M11A7) (0, 0.4, 0.8, 1.6, 3.12, 6.25, 12.5, 25 nM) and the substrate pNPP (para Nitrophenyl phosphate, Sigma, USA) were added and reacted at room temperature for 30 minutes. Then, 10 N NaOH was added thereto, followed by reaction at room temperature for 5 minutes to terminate the reaction between PTP-1B, dimethyl lobamide and the substrate. Thereafter, the absorbance was measured at 405 nm.

[3] = system: db/db mice (type 2 diabetes model animal); assay: Blood glucose after daily oral administration in diabetic disease model animals; format: in vivo; conditions: for antidiabetic effects by oral administration: diabetic disease model animals
Description: To more accurately measure antidiabetic effects of dimethyl lobamide, 200 μl of PBS as a control and 50 mg/kg of dimethyl lobamide compound as an experimental group were orally administered daily to 7-week-old male db/db mice (type 2 diabetes model animal, C57/BLKS/J-db/db, Korea Research Institute of Bioscience and Biotechnology). Thereafter, blood glucose was measured once a week. At this time, after oral administration, blood glucose was measured after fasting for 6 hours.

[4] = molecular target: T1, protein tyrosine phosphatase-1B (PTP-1B); conditions: comparison compounds; lobarstin from Korean Patent Registration No. 10-1481141; read-out: IC50 of PTP-1B inhibitory activity, comparison value; cited from earlier work

Compound | average body weight on day 0 ([1]; 50 mg/kg oral, day 0) [g] | average body weight on day 7 ([1]; 50 mg/kg oral, day 7) [g] | average body weight on day 14 ([1]; 50 mg/kg oral, day 14) [g] | change in body weight compared to the control [1] | change in body weight compared to the control ([1]; listed as dimethyl-lobamide) | PTP-1B inhibition rate ([2]; 0-25 nM) | IC50 ([2]; 0.5 μg/mL PTP-1B, pNPP, room temperature 30 minutes, absorbance 405 nm) [µM] | average blood glucose on day 0 ([3]; db/db mice, 50 mg/kg oral daily, after fasting 6 hours, day 0) [mg/dL] | average blood glucose on day 7 ([3]; db/db mice, 50 mg/kg oral daily, after fasting 6 hours, day 7) [mg/dL] | average blood glucose on day 14 ([3]; db/db mice, 50 mg/kg oral daily, after fasting 6 hours, day 14) [mg/dL] | increase in blood glucose versus control ([3]; db/db mice, 50 mg/kg oral, day 0 to 14) | antidiabetic effects by oral administration [3] | IC50 [4] [µM]
CCCCCc1c(Oc2cc(OC)cc(C(=O)CCCC)c2C(=O)N(C)C)c(O)cc(O)c1C(=O)O [dimethyl lobamide] | 30.95 | 31.78 | 34.86 | body weight reducing effects were demonstrated | no significant change in body weight | increased in a concentration-dependent manner | 0.00216 | 193 | 194 | 268 | lower increase in blood glucose than the control | could have the antidiabetic effects by oral administration | 
CCC/C=C1/OC(=O)c2c(Oc3c(O)cc(O)c(C(=O)O)c3CCCCC)cc(OC)cc21 [lobarstin, reference compound] |  |  |  |  |  |  |  |  |  |  |  | no antidiabetic effects by oral administration | 0.154
